Three molecules from patent publication US20180092360A1, “MICROBICIDAL COMPOSITION” (Dow Global Technologies LLC, priority 2015, published 2018) can be followed below.

Like-named read-outs stand apart in the source and are kept apart here.

The assay concerns bacterial pool of seven organisms. Put plainly: Dow time-kill test in pH 7.4 hand dish-washing liquid, with Kull synergy index. To be noted: for Concentration required to achieve >=4 Log bacterial counts reduction: bacterial pool, pH 7.4 hand dish-washing liquid, 37° C., active ingredient basis. The class given is cell-based. The procedure:
Four biocides and their combinations were tested at different concentration ranges. […] All biocide solutions were prepared and diluted in sterile DI water and used within 2 hours. These biocides are commercially available from The Dow Chemical Company. [table] A bacteria pool was used for testing. 24 hr bacterial cultures were obtained in TSB (Tryptic Soy Broth) media at 37° C. incubation for the seven organisms. The bacterial pool of seven organisms was prepared by taking equal parts of a 24 hour stationary phase aliquot from each bacterial culture and mixing them together. […] The time-kill tests were carried out to determine the threshold concentration of the biocide products in pH 7.4 hand dish-washing liquid. […] Biocides were then added into this bacterial suspension at various levels and mixed immediately. The mixed samples were then incubated at 37° C. At 24 hrs, viable bacteria remaining in the hand dish-washing samples were determined by 1:10 serial dilutions, transferring 20 ul aliquot of each sample into 180 ul TSB/Resazurin media. Triplicate tests were conducted. MPN method was used to determine the microbial concentration at after 24 hours incubation at 37° C. […] One measure of synergism is the industrially accepted method described by Kull, […]. and Mayer, R. L., in Applied Microbiology 9:538-541 (1961), using the ratio determined by the formula: Qa/QA+Qb/QB=Synergy Index (“SI”) wherein: • QA=concentration of compound A (first component) in ppm, acting alone, which produced an end point (MIC of Compound A). • Qa=concentration of compound A in ppm, in the mixture, which produced an end point. • QB=concentration of compound B (second component) in ppm, acting alone, which produced an end point (MIC of Compound B). • Qb=concentration of compound B in ppm, in the mixture, which produced an end point. When the sum of Qa/QA and Qb/QB is greater than one, antagonism is indicated. […] The lower the SI, the greater the synergy shown by that particular mixture. The minimum inhibitory concentration (MIC) of a microbicide is the lowest concentration tested under a specific set of conditions that prevents the growth of added microorganisms.

As for `[Na+].[O-]c1ccccc1-c1ccccc1` [SOPP, sodium orthophenylphenate], the “Concentration required to achieve >=4 Log bacterial counts reduction” value (24 h) is given as 358.5 ppm. In addition, the “Minimum Inhibitory Concentration (ppm) SOPP” value was found to be 358.5 ppm (Bacterial Pool, 24 hours, SOPP alone (QB) or SOPP in mixture with BIT (Qb)); 358.5 ppm (Bacterial Pool, 24 hours, SOPP alone (QB) or SOPP in mixture with CMIT/MIT (Qb)); 358.5 ppm (Bacterial Pool, 24 hours, SOPP alone (QB) or SOPP in mixture with MIT (Qb)).
As to `Cn1sccc1=O` [MIT, 2-Methylisothiazol-3-one], the MIC (24 h, read-out: Minimum Inhibitory Concentration (ppm) MIT) is greater than 95 µg/mL. Moreover, the “Concentration required to achieve >=4 Log bacterial counts reduction” value (24 h) is greater than 95 ppm.
For `O=c1[nH]sc2ccccc12` [BIT, 1,2-benzisothiazol-3-one], the “Concentration required to achieve >=4 Log bacterial counts reduction” value (24 h) came to 400 ppm. Also, for the setting “Bacterial Pool, 24 hours, BIT alone (QA) or BIT in mixture with SOPP (Qa), read-out: Minimum Inhibitory Concentration (ppm) BIT”, the MIC is 400 µg/mL.
